Assays:
C6 cells [1] = test: In vivo apoptosis assay: peptide-pretreated C6 cells in a diffusion chamber implanted s.c. in rats; parameters: species or system rat; conditions: for % Recovery (24 hs) / ability to induce apoptosis (in words) / Percent Recovery: C6 cells; for % Recovery (24 hs): peptide at 5×10^−M, 24 hs in diffusion chamber, % of original inoculum; for ability to induce apoptosis (in words): diffusion chamber, preincubation at 10^−5 M; for Percent Recovery: 24 hours in diffusion chamber
Method: (§1) The test for apoptosis in vivo was based on the use of the diffusion chamber described in detail by Resnicoff, M., et al., Cancer Res. 55: 2463-2469 (1995). According to this method, the cells are placed in a diffusion chamber that allows the passage of nutrients, antigens, antibodies, etc., but not of intact cells. The sterilized chamber is loaded with cells and then inserted into the subcutaneous tissue of rats or mice; after 24 hours, (or at other times, depending on the experiment) the chamber is removed and the number of cells in the chamber is determined with a hemocytometer, and expressed as a percentage of the original inoculum. The cells are also stained with trypan blue for viability; in the experience of the inventors, surviving cells are >95% viable.
(§2) For in vivo effects, 5×10^5 cells (C6 and CaOV-3 were both used for these studies) were placed in diffusion chambers and implanted into the s.c. tissue of the animals. Once the skin was sutured, the peptides were injected s.c. next to the chambers at the indicated concentrations in a final volume of 0.2 ml. Twenty-four hours later, the chambers were removed from the animals and the cells were quantitatively recovered.
(from gp100), involved in regression of human melanoma (Kawakami et al. 1994); 2) […], recognized by melanoma-specific human CTL lines (Cox et al, 1994); and 3) […], derived from connexin 37, that induces CTL responses against murine lung carcinoma (Mandelboim, et al., 1994). For each of these peptides, a control peptide having the same amino acid composition, but in scrambled order (controls), was also tested. C6 cells were preincubated with the peptides at a concentration of 10^−5M and transferred to the diffusion chamber (see Methods and Materials). Cell number was determined after 24 hours in the diffusion chamber transplanted into the subcutaneous tissue of rats.
Two of the three peptides were selected for further studies of the effects of mutations on the ability to induce apoptosis. Several point mutations were introduced into the peptide […]. […] Mutations at tyrosine in position 1, or the two prolines in positions 4 and 6, effectively inactivated peptide no. 2. An exception to this observation was seen when the prolines were replaced by an N-methyl amino acid. Mutations at E3 or T8 had little effect, but when both residues were mutated, recovery increased to 77%.
In order to determine the minimum concentration of these peptides that still would induce apoptosis in vivo, C6 cells were preincubated with different concentrations of the […] and D-amino acid […] peptides and recovery of viable cells was determined after 24 hours in the diffusion chamber.

C6 cells [2] = test: Protection from subsequent challenge with wild type C6 cells; type: in vivo, rat
Method: Synthetic peptide sequences listed above were tested at 5×10^−M on C6 cells. Tests for apoptosis and for protection from subsequent challenge with C6 cells are described herein. Point mutations are shown in bold characters.

C6 glioblastoma cells = type: in vivo, rat; parameters: dose or concentration left out as unconfirmed; conditions: C6 cells pre-treated 24 hours in serum-free medium
[3] = test system: CaOV3 cells (human ovarian carcinoma cells); test: Diffusion chamber assay, CaOV3 cells in mice, peptide injected s.c. next to chamber; type: in vivo, mouse; conditions: Balb/c mice, 0.2 ml of 0.05 mM peptide s.c. next to chamber, 24 hours
Method: as §1, §2
Human ovarian carcinoma cells CaOV3 (Resnicoff, et al. (1993)) were loaded into a diffusion chamber, and the chamber was inserted into the subcutaneous tissue of mice. The animals were then injected, also subcutaneously next to the chamber, with 0.2 ml of a 0.05 mM solution of four different peptides, and the number of cells was determined 24 hours later. […] The control peptide had no effect, and the number of cells more than doubled. CaOV3 cells also undergo apoptosis, as determined by FACS analysis.
CaOV3 cells (human ovarian carcinoma cells, 5×10^5 cells) were placed without any previous treatment into diffusion chambers that were then implanted into the subcutaneous tissue of Balb/c mice. Animals were then injected subcutaneously next to the chambers either with 0.2 ml of a 0.05 mM solution of one of the three test peptides or with 0.2 ml of a 0.05 mM solution of the control peptide.

C6 cells [4] = test: Tumorigenesis of C6 cells in nude mice; type: in vivo; conditions: peptide 0.1 ml s.c. at 10^−10 to 10^−12 M, simultaneously with and next to 10^5 C6 cells, nude mice
Method: C6 cells pre-incubated with various concentrations (10^−12, 10^−10, 10^−8, and 10^−5 M) of the peptide YLRPGPVTA were injected simultaneously into nude mice and the time of appearance of subcutaneous tumors was determined. In parallel experiments, the percentage of cells killed in the diffusion chamber assay was determined. From the percentage of cells killed, the expected delay in the appearance of tumors in mice was calculated as described previously (Resnicoff, et al., Cancer Res. 55:3739 (1995)). […] The time of appearance of tumors is slightly more delayed than expected from the percentage of cells killed in 24 hours in the diffusion chamber assay, a phenomenon previously observed also with antisense oligodeoxynucleotides to the IGF-IR RNA (Resnicoff, et al., Cancer Res. 55:3739 (1995)).
A similar inhibition of tumorigenesis was observed using the D-amino acid peptide LRLTATGDLL. In this case, the peptide (all D-aa, sequence from Kawakami, et al. (1994)) was injected s.c. into nude mice (0.1 ml, at the indicated concentrations), simultaneously with C6 cells (10^5 cells in 0.1 ml) and next to them. The animals were followed for tumor development. The results were as follows: For C6 cells without peptide injection, the tumors appeared after 4 days; for a peptide injection at 10^−10 to 10^−12 M, tumors appeared after 11 days.
C6 cells were incubated with the synthetic peptide at the indicated final concentrations for 24 hours in serum-free medium before injection into the subcutaneous tissue of seven week-old male Dalb/c nude mice. Percentage recovery was determined using the diffusion chamber assay as described herein. Expected Delay is the number of days after injection before the tumors should become palpable, based on survival in vivo estimated by percentage of cells recovered. […] Three nude mice were used in each experimental condition.

C6 cells [5] = test: FACS analysis of apoptotic cells in the diffusion chamber; parameters: species or system rat; conditions: C6 cells incubated in vivo for 90 minutes in diffusion chamber
Method: In order to determine that the loss of cells upon treatment with active peptides was due to the induction of apoptosis, the presence of apoptotic cells within the diffusion chamber was determined at several time intervals by FACS analysis (Sell, et al. (1995)). FIG. 1 represents a typical experiment using C6 cells. […] In both cases, the cells had been incubated in vivo for 90 minutes in a diffusion chamber as described herein. […] Similar results were obtained at several time intervals thereafter.

ALEPGPVTA [point mutant of …]
% Recovery (24 hs) (C6 cells [1]): 224.0%
Protection from wild type cell challenge (C6 cells [2]): no

ATVPGPELY (D-amino acids) [ATVPGPELY (D-amino acid)]
ability to induce apoptosis (in words) (C6 cells [1]): as effective as the L-amino acid sequences
% Recovery (24 hs) (C6 cells [1]): 6.0%
Protection from wild type cell challenge (C6 cells [2]): yes

GILGFVPTL [Peptide M158-66, synthetic peptide corresponding to one derived from influenza virus]
Recovery (%) (C6 glioblastoma cells): 23.4%

LLDGTATLRL [MHC Class I peptide derived from gp100, human melanoma specific antigen]
% Recovery (24 hs) (C6 cells [1]): 5.0%
Protection from wild type cell challenge (C6 cells [2]): yes

LRLTATGDLL (D-amino acids) [LRLTATGDLL (D-amino acid)]
Percent Recovery [3]: 6.6%
time of appearance of tumors (C6 cells [4]): 11 days
ability to induce apoptosis (in words) (C6 cells [1]): as effective as the L-amino acid sequences
Percent Recovery (C6 cells [1]; peptide 10^−5 M): 0.5%
Percent Recovery (C6 cells [1]; peptide 10^−8 M): 3.0%
Percent Recovery (C6 cells [1]; peptide 10^−12 M): 6.6%
Percent Recovery (C6 cells [1]; peptide 10^−13 M, listed as LRLTATGDLL (D-aa)): 18.0%
% Recovery (24 hs) (C6 cells [1]): 4.9%
Protection from wild type cell challenge (C6 cells [2]): yes

SMAPGNYSV [control peptide, reference compound]
apoptotic cells by FACS analysis (C6 cells [5]): not

TLGIVCPI [HPV-16 E786-93, MHC Class I peptide derived from Human Papilloma Virus Type 16 (HPV-16) E7 protein]
Recovery (%) (C6 cells [1]; C6 rat glioblastoma cells pre-treated with 50 μM peptide 24 hours in serum-free medium, chamber in rats 24 hours): 27%

YAEPGPVTA [point mutant of …]
% Recovery (24 hs) (C6 cells [1]): 186.0%
Protection from wild type cell challenge (C6 cells [2]): no

YLAPGPVTA [point mutant of …]
% Recovery (24 hs) (C6 cells [1]): 7.4%
Protection from wild type cell challenge (C6 cells [2]): yes

YLEAGPVTA [point mutant of …]
% Recovery (24 hs) (C6 cells [1]): 224.0%
Protection from wild type cell challenge (C6 cells [2]): no

From patent US20020165136A1, “MHC peptides and methods of use” (Thomas Jefferson University, priority 1996, published 2002)
